In PMC8634879, “Design, Synthesis, and Biological Evaluation of Pyrano[2,3-c]-pyrazole–Based RalA Inhibitors Against Hepatocellular Carcinoma” (Frontiers in Chemistry, 2021):

What was measured:
HepG2 xenograft = assay: HepG2 subcutaneous xenograft model; type: in vivo
Experimental: Several reports have characterized RalA/B potential regulatory roles in autophagy ([Zhang et al., 2019]; [Pang et al., 2020]; [Zhang et al., 2020]). Considering the dual effect of HCC autophagy, we assessed changes in HepG2 cell autophagy levels after the addition of 0.5 or 2.0 μM of 4p, before incubation. Based on HepG2 cells’ TEM images with or without 4p (Figure 5B), autophagy vacuoles per cell decreased in the 4p-treated group (p < 0.01). After 4p treatments, LC3-II and ATG5 protein levels declined and SQSTM1 increased. […] In GFP-LC3–transfected HepG2 cells, cytoplasm LC3 fluorescent puncta numbers also declined after 4p treatments. […] The in vivo antitumor capacities of 4p were determined on a HepG2 subcutaneous xenograft model. The 4p intraperitoneal injections were set to 15 mg/kg and 60 mg/kg, according to in vitro results. […] The potential 4p molecular mechanisms were further validated using immunofluorescence and IHC analyses of tissue sections stained by antibodies against TUNEL, Ki-67, RalA, LC3-II, and SQSTM1. […] Therefore, the in vivo results were consistent with in vitro experiments.
Female Balb/c nude mice aged 6–8 weeks were purchased from Beijing Huafukang Co. Ltd. (Beijing, China). Animal-based experiments complied with the guidelines of the Animal Ethics Committee (Sichuan University), and all aspects were approved by the Animal Ethics Committee of West China Hospital of Sichuan University (China). In brief, HepG2 cells were injected subcutaneously in the dorsal flank of Balb/c nude mice (5*10^5 cells per mice). Tumor volumes were recorded every 2 days post cancer cell injection. After the therapeutic endpoint, all mice were euthanized, and tumor tissues were stripped, fixed in formalin, embedded in paraffin, and sectioned. The IHC and immunofluorescent staining methods were performed following methods as per our previous research, ([Zhang et al., 2019]; [Pan et al., 2020]; [Pang et al., 2020]; [Zhang et al., 2020]), and detailed experimental procedures are also described in supporting materials. […]
2. Western blotting analysis
For western blotting, the extracts of total protein from each sample were treated in accordance with the method we described previously. In short, the total proteins were loaded into the SDS-PAGE gel and separated through the different of their molecular weight in electrophoresis, after that the separated proteins were shifted into a PVDF membrane (Millipore, Burlington, MA, USA) and incubated through corresponding membrane react pathways. The resulted membranes reacted with major antibodies and HRP (horseradish peroxidase)-conjugated secondary antibodies. The expression profiles of target proteins can be identified through an enhanced chemiluminescence (ECL) substrate.
3. Immunohistochemistry and immunofluorescent assays
The histological sections of tumor tissue were immersed into EDTA antigen recovery buffer (pH 8.0) or citrate buffer (pH 6.0), and then microwave was used to recover antigen. Then the slide was incubated with the corresponding primary antibody at 37 ℃ for 30-40 min. Normal anti-rabbit or anti-mouse IgG was used as a negative control group. Immunohistochemical analysis was performed with diaminobenzidine solution after the sections was treated with HRP polymer as well as the second antibody for 30 min. Immunofluorescence (IF) test was carried out by treating slides with fluorescein combined with secondary antibody and detecting under fluorescence microscope. The IHC staining method is to use the corresponding primary antibody, as we reported in previous

Hep3B cells = assay: Cell proliferation assay (MTT), Hep3B; type: cell-based; conditions: Homo sapiens, average of at least three independent replicates ± SD, read-out: Anti-proliferative activities (IC50, μM) Hep3B
Experimental: The antibodies recognizing LC3, p62/SQSTM1, RalA, RalB, and GAPDH were purchased from Proteintech (Wuhan, China). HCC cell lines, including HepG2, Hep3B, Huh-7, and SMMC-7721, were obtained from the Chinese Center for Type Culture Collection (Wuhan, China) and cultured in DMEM (Dulbecco’s modified Eagle’s medium) with 10% FBS (fetal bovine serum) and streptomycin. Cytotoxicity assays were performed by using the MTT method as previously described.
The in vitro RalA/B bioactivity assays were performed following methods outlined in previous reports. ([Yan et al., 2016]; [Zhang et al., 2018]; [Walsh et al., 2019]; [Bum-Erdene et al., 2020]). In brief, the lysates of the test compound or vehicle-treated cells were cleared using cold centrifugation, and supernatants were collected. An RalBP1 solution was added to 96-well plates and incubated for 1–2 h, and then the plates were washed thrice using ELISA buffer. Next, cellular lysates were added, and samples were incubated overnight at 4°C. Then, ice-cold mouse anti-FLAG antibody was added, and samples were incubated for one more hour. After subsequent washing with ELISA buffer thrice, the HRP-conjugated anti-mouse antibody was added, and samples were incubated for another hour. Then, the HRP substrate was added. Antigen–antibody reactions were quenched by the addition of sulfuric acid (2 mol/L). Remaining RalA/B was detected by the OD450 values which were collected by using a plate reader. Cell proliferation assays, colony formation assays, apoptosis assays, GST pulldown, and Western blotting were used following methods outlined in our previous reports. ([Zhou et al., 2015]; [Zhang et al., 2016]; [Yang et al., 2017]; [He et al., 2019]). Autophagy levels and protein immunoblotting were used following the methods mentioned in our previous reports ([Pan et al., 2018]; [Wang et al., 2018]; [Hao et al., 2019]; [Wang et al., 2019]; [Peng et al., 2020]). Detailed experimental procedures are described in supporting materials.

Structure (SMILES): COc1ccc(S(=O)(=O)NC2=C(C#N)C(c3ccc(C(F)(F)F)cc3)c3c(C)nn(-c4ccccc4)c3O2)cc1 (centres unmarked) [4p, N-(5-cyano-3-methyl-1-phenyl-4-(4-(trifluoromethyl)phenyl)-1,4-dihydropyrano[2,3-c]-pyrazol-6-yl)-4-methoxybenzenesulfonamide]
- body weights (HepG2 xenograft; 15 and 60 mg/kg i.p.): without significant changes
- total RalA levels in tumor sections (HepG2 xenograft; IHC): No clear changes
- mean tumor weights compared to the control (HepG2 xenograft; both high- and low-dosage groups (60 and 15 mg/kg i.p.), p < 0.01): notably declined
- TUNEL and SQSTM1 levels in tumor sections (HepG2 xenograft; high dosage group, immunofluorescence/IHC): increased
- LC3-II expression in tumor sections (HepG2 xenograft; high dosage group, p < 0.01): decreased
- tumor growth inhibition (TGI) (HepG2 xenograft; high dosage, 60 mg/kg intraperitoneal injection): 63%
- tumor growth inhibition (TGI) (HepG2 xenograft; low dosage, 15 mg/kg intraperitoneal injection): 39%
- IC50 (Hep3B cells): 2.71 ± 0.27 µM
